Laboratory results as given in patent US11246874B1, “Treatment of COVID-19” (Oxygen Biotech LLC, priority 2021, dated 2022).

Tests used:
Assay type in all cases: cell-based
[1] = tested on: SARS-CoV-2 virus (strain SARS-CoV-2/human/Czech Republic/951/2020); assay: Antiviral testing in Vero-E6 cells, virus titer by plaque titration; settings: Vero-E6, 3.8 μg/μl, MOI 0.1, 48 h
Procedure: Confluent culture of Vero-E6 cells (ATCC CRL-1586) was used to test for antiviral activity. Cells were cultured in a 96-well microtiter plate (2×10^4 cells per well) for 24 h at 37° C. and 5% CO2. The culture medium was then aspirated and replaced with fresh medium containing the test substance in a concentration range of 0-3.8 μg/μl. At the same time, the cells were infected with the SARS-CoV-2 virus (strain SARS-CoV-2/human/Czech Republic/951/2020) at a multiplicity of infection of 0.1. The thus treated and infected cells were incubated for 48 h at 37° C. and 5% CO2. The medium was then aspirated from the culture wells and the virus titer was determined by plaque titration (Stefanik et al., Microorganisms 2021, 9 (3), 471; https://doi.org/10.3390/microorganisms9030471).
Results are depicted in FIG. 2.

[2] = tested on: Vero-E6 cells (ATCC CRL-1586); assay: Cytotoxicity in Vero-E6 cell culture (Cell Counting Kit-8); settings: 48 h incubation, range 0-15.2 μg/μl
Procedure: The toxicity of the test substance was measured in a culture of Vero-E6 cells (ATCC CRL-1586). Cells were cultured in a 96-well microtiter plate (2×10^4 cells per well) for 24 h at 37° C. and 5% CO2. Then, the test substance was added to the cells in a concentration range of 0-15.2 μg/μ1, and the thus treated cells were subsequently incubated for another 48 h. The viability of the cells was then determined using the Cell Counting Kit-8 kit (Dojindo Molecular Technologies, Munich, Germany), exactly according to the manufacturer's instructions. Results are depicted in FIG. 1. The maximum non-toxic concentration of test substance in Vero-E6 cell culture was 3.8 μg/μl.

[3] = tested on: SARS-CoV-2 virus, strain S-007; assay: Infection of Vero cells with SARS-CoV-2; viral RNA (E-gene) in supernatant by 1-step RT-qPCR; settings: bazedoxifene 10 μM in DMSO, 2 days of culture
Procedure: 0.15×10^6/ml Vero cells were infected with SARS-CoV-2 virus, an isolate from the environment, strain designated as S-007, provided by the Těchonin Biological Protection Department. Vero cells were then incubated in Dulbecco's Modified Eagle's Medium (DMEM) with 2% fetal bovine serum (FBS), DMSO 1 μl/ml, or in culture medium with bazedoxifene 10 […] in DMSO dosed from a starting stock solution of 10 mM bazedoxifene in DMSO, corresponding to a bazedoxifene concentration of […]. After 2 days of culture, the virus was quantified in the cell supernatant as follows.
Viral RNA was detected by 1-step RT-qPCR. Total RNA was isolated from 200 μl of supernatant of SARS-CoV-2 infected cells using magnetic beads. SARS-CoV-2 RNA was determined by amplifying the SARS-CoV-2 E-gene (Generi Biotech) using the SensiFast Probe One-Step Kit (BioLine) and Light Cycler 480 II (Roche). Viral RNA was quantified absolutely using a calibration curve.

Q: How did the “decrease of titer in the treated group” value ([1]; versus control group) turn out when bazedoxifene was run?
A: Its value is “approximately 1 log10 pfu/ml”.

Q: What about the mean virus titer ([1]; control group 7.4 log10 pfu/ml) of the same substance?
A: Its mean virus titer is 6.3 log10 pfu/ml.

Q: And the maximum non-toxic concentration [2]?
A: The maximum non-toxic concentration was 3.8 µg/µL.

Q: What about the “% of DMSO” value ([3]; E-gene copies) of the same substance?
A: The value was 0.17%.

Q: And the “Fold decrease compared to DMSO” value ([3]; E-gene copies)?
A: Its value is 578.09.

Q: What about the “E-gene No. of copies of the gene/ml” value ([3]; cell supernatant) of the same substance?
A: Its value is 5.39 × 10^7 copies of the gene/ml.
